# Patent US8058417B2, “Biosynthetic pathway and genes required for tropodithietic acid biosynthesis in silicibacter TM1040” (priority 2006, dated 2011)
# Legend:
# [1] = system: Mycobacterium tuberculosis strain H37Rv; experiment: Minimal Inhibitory Concentration (MIC) of TDA against Mycobacterium tuberculosis; type: cell-based
# Source text: Against Mycobacterium tuberculosis strain H37Rv
# [2] = system: Methicillin-resistant Staphylococcus aureus (MRSA) strain USA300; experiment: Minimal Inhibitory Concentration (MIC) of TDA against MRSA; type: cell-based
# Source text: Against Methicillin-resistant Staphylococcus aureus (MRSA) strain USA300
# Vibrio anguillarium = experiment: Minimal Inhibitory Concentration (MIC) of TDA against Vibrio anguillarium; type: cell-based; details: FIG. 12
# Source text: FIG. 12 is a graph showing the efficacy of TDA against Vibrio anguillarum, as described in Example 10.
# V. anguillarium [3] = experiment: Swimming (motility) of V. anguillarium exposed to TDA; type: cell-based, Vibrio anguillarium; details: exposed to 5 ug TDA per ml (ca. 3x MIC)
# Source text: It is unlikely that the mechanism of action of TDS involves inhibition of protein, DNA or RNA synthesis, transcription, or translation, all of which would require more time to inhibit.
# V. anguillarium [4] = experiment: Regrowth of V. anguillarium in fresh nutrient broth after TDA exposure (bactericidal test); type: cell-based, Vibrio anguillarium; details: 5 ug per ml (3x MIC) for 90 minutes, FIG. 13
# Protocol: FIG. 13 is a graph showing the bactericidal character of TDA against Vibrio anguillarum, illustrating the results using control (squares; buffer only), control 0.001 (circles), TDA (triangles), and TDA 0.001 (inverted triangles), as described in Example 10. V. anguillarium was exposed to 5 ug TDS per ml (3× MIC) for 90 minutes, after which the cells were washed and suspended in fresh nutrient broth. […] The results, as set forth in the graph of FIG. 13 indicate that the activity of TDA is bactericidal for this bacterial species, not simply bacteristatic.
smiles,measurement,setting,value
"O=C(O)c1c(=O)cccc2ssc12 [TDA, tropodithietic acid]",Result in words: killing of M. tuberculosis,[1],kills
same,MIC,[1]; M. tuberculosis strain H37Rv,7.8 µg/mL
same,MIC,[2],40 µg/mL
same,Result in words: killing of MRSA,[2],kills
same,MIC,Vibrio anguillarium,1.5 µg/mL
same,Result in words: killing of V. anguillarium,Vibrio anguillarium,kills
same,Time until V. anguillarium stopped swimming,V. anguillarium [3],≤ 70 s
same,Character of activity (bactericidal vs bacteristatic),V. anguillarium [4],bactericidal
same,Growth of exposed cells after washing and suspension in fresh nutrient broth,V. anguillarium [4]; control cells exposed to buffer grew normally,failed to grow
